Tests used:
[1] = system: Haemophilus influenzae serotype b; assay: PRP production in liquid garden pea peptone-based culture medium as a function of heme source (sandwich ELISA on supernatant); assay type: cell-based; details: for Mean PRP / PRP in mg/l Assay 1 / PRP in mg/l Assay 2: garden pea medium, 16 h
Method: The production of PRP obtained after 16 hours of bacterial culture in liquid plant peptones-based culture media in which the heme source was either hemin or protoporphyrin IX of animal origin (porcine protoporphyrin) in disodium salt form, or protoporphyrin IX of purely synthetic origin in disodium salt form was compared. […] An enzymatic hydrolysate of garden pea peptone provided by Kerry (Hy pea 7404) and a wheat peptone provided by Organotechnie (19559) were tested at a concentration in the culture medium equivalent to 0.87 g/l of protein nitrogen. By reference to the current methods for the production of PRP, PRP production was also measured in a medium that contains a peptone of animal origin, such as casein hydrolysate (HAC) provided by Solabia at a concentration in the medium equivalent to 0.87 g/l with increased concentrations of hemin (see table III).
(§1) 1.1) Preparation of the Media • 1.1.1. Stock solution of β-NAD (Fluka) at 1 g/l in water which was ultrafiltered and then sterilized by filtration through 0.22 μm. • 1.1.2. Stock solution of hemin (Sigma) at 0.25 g/l in water was ultrafiltered, comprising 5 ml of 25% aqueous ammonia (Cooper) to aid dissolution. The stock solution was sterilized by filtration through 0.22 μm. • 1.1.3. Stock solution of porcine protoporphyrin IX (Sigma) at 0.25 g/l in ultrafiltered water comprising 5 ml of 25% aqueous ammonia (Cooper) in order to facilitate the dissolution. The stock solution was sterilized by filtration through 0.22 μm. • 1.1.4. Stock solution of synthetic protoporphyrin IX at 0.25 g/l in ultrafiltered water comprising 5 ml of 25% aqueous ammonia (Cooper) in order to facilitate the dissolution. The stock solution was also heated to 80° C. in a water bath with stirring in order to complete the dissolution before being sterilized by filtration through 0.22 μm. The protoporphyrin IX, in disodium salt form, was synthesized according to the method described in the U.S. provisional patent application Ser. No. 12/057,574, filed Mar. 28, 2008 and application Ser. No. 60/943,735 and filed on Jun. 13, 2007 using the steps which are described in scheme 2. • The stock solutions of hemin and protoporphyrin IX were checked for their respective contents of active compounds after sterilizing filtration. The protoporphyrin IX and hemin contents were determined by Reversed Phase High Performance Liquid Chromatography (RP-HPLC). The chromatographic chain comprises a twin head pump module allowing the formation of a binary gradient, a programmable automatic injector, a diode array UV detector and a chromatographic column of the type Synergi 4 μm, Polar RP-80A (150×4.6) mm, ref 00F-4336-E0, Phenomenex. • The stock solution of hemin (Sigma) to be checked after filtration was diluted ⅓ in distilled water. The stock solutions of porcine protoporphyrin IX (Sigma) and of synthetic protoporphyrin IX to be checked after filtration were diluted ¼ in distilled water. In parallel, a calibration series was prepared in ammoniated water ranging from 0.025 g/l to 0.125 g/l of protoporphyrin IX from porcine protoporphyrin IX from Sigma (ref: 25838-5) and a calibration series ranging from 0.050 g/l to 0.150 g/l of hemin from hemin from Sigma (ref: H5533-256). The samples to be checked and the various solutions of the calibration series were injected in a volume of 20 μl (for the hemin solutions and samples) and of 5 μl (for the protoporphyrin IX solutions and samples). The initial mobile phase consisting of a volume for volume mixture of acetonitrile and 10 mM KH2PO4 pH 2.5 is set at a flow rate of 1 ml/min. A discontinuous gradient was then produced from this mobile phase in order to separate the molecules of interest which are detected at a wavelength of 400 nm. […]

[2] = system: Haemophilus influenzae serotype b; assay: PRP production in liquid wheat peptone-based culture medium as a function of heme source (sandwich ELISA on supernatant); assay type: cell-based; details: for Mean PRP / PRP in mg/l Assay 1 / PRP in mg/l Assay 2: wheat medium, 16 h
Method: The production of PRP obtained after 16 hours of bacterial culture in liquid plant peptones-based culture media in which the heme source was either hemin or protoporphyrin IX of animal origin (porcine protoporphyrin) in disodium salt form, or protoporphyrin IX of purely synthetic origin in disodium salt form was compared. The hemin and protoporphyrin IX concentration ranges in the culture media varied from about 0.010 g/l to about 2 g/l so as to obtain PRP titration curves as a function of the heme source tested and as a function of the plant peptone tested. An enzymatic hydrolysate of garden pea peptone provided by Kerry (Hy pea 7404) and a wheat peptone provided by Organotechnie (19559) were tested at a concentration in the culture medium equivalent to 0.87 g/l of protein nitrogen. By reference to the current methods for the production of PRP, PRP production was also measured in a medium that contains a peptone of animal origin, such as casein hydrolysate (HAC) provided by Solabia at a concentration in the medium equivalent to 0.87 g/l with increased concentrations of hemin (see table III).
as §1

C=CC1=C(C)c2cc3[n-]c(cc4nc(cc5[n-]c(cc1n2)c(C)c5CCC(=O)O)C(CCC(=O)O)=C4C)c(C)c3C=C.[Cl-].[Fe+3] [Hemin, hemin, reference compound]
Mean PRP ([1]; hemin 11.8 μg/l): 4 mg/L
PRP in mg/l Assay 1 ([1]; hemin 11.8 μg/l): 3.82 mg/L
PRP in mg/l Assay 2 ([1]; hemin 11.8 μg/l): 3.79 mg/L
Mean PRP ([1]; hemin 59 μg/l): 7 mg/L
PRP in mg/l Assay 1 ([1]; hemin 59 μg/l): 7.61 mg/L
PRP in mg/l Assay 2 ([1]; hemin 59 μg/l): 7.13 mg/L
Mean PRP ([1]; hemin 118 μg/l): 20 mg/L
PRP in mg/l Assay 1 ([1]; hemin 118 μg/l): 23.4 mg/L
PRP in mg/l Assay 2 ([1]; hemin 118 μg/l): 17.5 mg/L
Mean PRP ([1]; hemin 295 μg/l): 48 mg/L
PRP in mg/l Assay 1 ([1]; hemin 295 μg/l): 51.2 mg/L
PRP in mg/l Assay 2 ([1]; hemin 295 μg/l): 45.4 mg/L
Mean PRP ([1]; hemin 590 μg/l): 84 mg/L
PRP in mg/l Assay 1 ([1]; hemin 590 μg/l): 95.4 mg/L
PRP in mg/l Assay 2 ([1]; hemin 590 μg/l): 72.9 mg/L
Mean PRP ([1]; hemin 1180 μg/l): 233 mg/L
PRP in mg/l Assay 1 ([1]; hemin 1180 μg/l): 234 mg/L
PRP in mg/l Assay 2 ([1]; hemin 1180 μg/l): 232 mg/L
Mean PRP ([1]; hemin 1770 μg/l): 210 mg/L
PRP in mg/l Assay 1 ([1]; hemin 1770 μg/l): 209 mg/L
PRP in mg/l Assay 2 ([1]; hemin 1770 μg/l): 211 mg/L
Mean PRP ([1]; hemin 2360 μg/l): 494 mg/L
PRP in mg/l Assay 1 ([1]; hemin 2360 μg/l): 505 mg/L
PRP in mg/l Assay 2 ([1]; hemin 2360 μg/l): 482 mg/L
Mean PRP ([1]; hemin 3540 μg/l): 142 mg/L
PRP in mg/l Assay 1 ([1]; hemin 3540 μg/l): 129 mg/L
PRP in mg/l Assay 2 ([1]; hemin 3540 μg/l): 154 mg/L
heme source concentration required for optimum / maximum PRP production ([1]; garden pea peptone medium (FIG. 1)): about 2500 μg/l
production of PRP (in words) ([1]; plant peptone medium, heme source at 10 μg/l): insignificant
production of PRP ([1]; plant peptone medium, heme source at 50 μg/l (FIGS. 1 and 2)): ≤ 10 µg/L
Mean PRP ([2]; hemin 11.8 μg/l): 5.3 mg/L
PRP in mg/l Assay 1 ([2]; hemin 11.8 μg/l): 4.98 mg/L
PRP in mg/l Assay 2 ([2]; hemin 11.8 μg/l): 5.61 mg/L
Mean PRP ([2]; hemin 59 μg/l): 13.35 mg/L
PRP in mg/l Assay 1 ([2]; hemin 59 μg/l): 13 mg/L
PRP in mg/l Assay 2 ([2]; hemin 59 μg/l): 13.7 mg/L
Mean PRP ([2]; hemin 118 μg/l): 17.60 mg/L
PRP in mg/l Assay 1 ([2]; hemin 118 μg/l): 17.7 mg/L
PRP in mg/l Assay 2 ([2]; hemin 118 μg/l): 17.5 mg/L
Mean PRP ([2]; hemin 295 μg/l): 32.75 mg/L
PRP in mg/l Assay 1 ([2]; hemin 295 μg/l): 35.3 mg/L
PRP in mg/l Assay 2 ([2]; hemin 295 μg/l): 30.2 mg/L
Mean PRP ([2]; hemin 590 μg/l): 72.4 mg/L
PRP in mg/l Assay 1 ([2]; hemin 590 μg/l): 71.4 mg/L
PRP in mg/l Assay 2 ([2]; hemin 590 μg/l): 73.4 mg/L
Mean PRP ([2]; hemin 1180 μg/l): 291.5 mg/L
PRP in mg/l Assay 1 ([2]; hemin 1180 μg/l): 327 mg/L
PRP in mg/l Assay 2 ([2]; hemin 1180 μg/l): 256 mg/L
Mean PRP ([2]; hemin 1770 μg/l): 466.5 mg/L
PRP in mg/l Assay 1 ([2]; hemin 1770 μg/l): 487 mg/L
PRP in mg/l Assay 2 ([2]; hemin 1770 μg/l): 446 mg/L
Mean PRP ([2]; hemin 2360 μg/l): 495.5 mg/L
PRP in mg/l Assay 1 ([2]; hemin 2360 μg/l): 487 mg/L
PRP in mg/l Assay 2 ([2]; hemin 2360 μg/l): 504 mg/L
heme source concentration required for optimum / equivalent PRP production ([2]; wheat peptone medium (FIG. 2)): about 1500 μg/l

Source: US8673617B2, “Culture medium for Haemophilus influenzae type B” (Sanofi Pasteur SA, priority 2007, dated 2014)
